The values that follow come from PMC11022729 (Advanced Science, 2024).

The structures appear in SMILES notation. Where two headings read alike, the source gives them in different places.

For one data set, the target named is T1, purified human Slack (Homo sapiens, UniProt Q5JUK3).
T1 construct: NM_02 0822.3, residues 1–1235; green fluorescent protein (GFP) (C, cleaved yes); twin strep-II-tag (C, cleaved yes); made in house; host or cells: HEK293F cells, transient transfection
T1 sequence (Q5JUK3 1-1235 isoform Q5JUK3-3): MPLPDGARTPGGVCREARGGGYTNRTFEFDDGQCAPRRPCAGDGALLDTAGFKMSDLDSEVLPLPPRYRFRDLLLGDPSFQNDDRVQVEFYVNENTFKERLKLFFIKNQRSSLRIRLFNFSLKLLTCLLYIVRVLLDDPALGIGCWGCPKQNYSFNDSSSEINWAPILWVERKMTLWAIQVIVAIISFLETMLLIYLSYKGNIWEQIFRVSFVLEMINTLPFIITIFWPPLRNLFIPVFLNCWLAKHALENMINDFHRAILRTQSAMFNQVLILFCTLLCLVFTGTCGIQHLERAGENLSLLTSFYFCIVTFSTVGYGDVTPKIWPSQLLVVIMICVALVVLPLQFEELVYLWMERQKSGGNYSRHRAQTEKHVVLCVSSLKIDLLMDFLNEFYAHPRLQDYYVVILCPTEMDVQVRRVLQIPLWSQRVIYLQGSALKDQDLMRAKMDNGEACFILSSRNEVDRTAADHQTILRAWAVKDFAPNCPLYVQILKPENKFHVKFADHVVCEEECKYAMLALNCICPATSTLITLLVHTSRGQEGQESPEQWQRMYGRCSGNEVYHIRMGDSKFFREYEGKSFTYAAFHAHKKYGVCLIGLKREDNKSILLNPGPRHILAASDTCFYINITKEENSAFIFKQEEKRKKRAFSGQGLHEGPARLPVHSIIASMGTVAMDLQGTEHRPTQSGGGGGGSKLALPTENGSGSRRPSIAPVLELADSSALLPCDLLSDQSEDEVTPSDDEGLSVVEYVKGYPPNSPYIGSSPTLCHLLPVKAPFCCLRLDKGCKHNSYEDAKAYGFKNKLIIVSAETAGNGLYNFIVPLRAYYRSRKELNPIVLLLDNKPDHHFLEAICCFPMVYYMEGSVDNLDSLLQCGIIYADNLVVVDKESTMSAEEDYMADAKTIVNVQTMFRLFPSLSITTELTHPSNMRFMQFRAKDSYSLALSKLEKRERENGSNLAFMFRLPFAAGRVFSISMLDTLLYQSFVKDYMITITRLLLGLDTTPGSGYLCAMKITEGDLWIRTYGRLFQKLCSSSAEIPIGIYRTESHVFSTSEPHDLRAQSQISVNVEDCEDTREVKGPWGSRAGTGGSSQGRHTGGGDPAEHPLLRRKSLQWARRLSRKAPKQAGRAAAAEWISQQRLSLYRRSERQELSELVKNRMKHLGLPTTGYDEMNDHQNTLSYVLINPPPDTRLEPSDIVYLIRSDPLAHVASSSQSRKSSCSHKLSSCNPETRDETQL
Put plainly: Differential scanning fluorimetry (DSF) on purified Slack. The format is binding. Particulars: 100 µM ligand concentration; for melting temperature Tm of Slack: Tm without ligand 30 °C. The procedure:
To confirm that the cellular effect of compound 6 was mediated by its direct interaction with Slack, ligand binding on purified human Slack (Figure S6A, Supporting Information) was assessed by differential scanning fluorimetry (DSF), thereby evaluating a ligand‐dependent shift of the protein melting temperature (T m). The cysteine‐reacting dye 7‐diethylamino‐3‐(4‐maleimidophenyl)−4‐methylcoumarin (CPM), which binds to cysteine residues that are accessible during protein unfolding, was used as an indicator for protein unfolding. […] In the presence of a Slack inhibitor (compound 31 from ref. [27]), known to directly interact with the protein and therefore used as a positive control, T m saturated at 45.7 ± 3.2 °C at a ligand concentration of 100 µM (Figure S6B, Supporting Information), indicating a notable stabilization of Slack.
The melting temperature was determined from the fluorescence of 7‐diethylamino‐3‐(4‐maleimidophenyl)−4‐methylcoumarin (CPM) dye. […] Five microliters of the CPM dye (15 µg mL^−1 CPM final concentration) in the SEC buffer was added to the protein compound mixture and further incubated for 30 min on ice in the dark. The samples were centrifuged at 15 000 × g at 4 °C for 10 min to remove aggregates. Melting curves were recorded in an RT‐PCR (Thermo Fischer) using a temperature range of 10–80 °C in 1 °C‐increments, increasing every 75 s. The CPM dye was excited at a wavelength of 365 nm and the emission was measured at 470 nm.
Background: Differential scanning fluorimetry follows unfolding on heating by fluorescence.

Data set [1] is described as follows: Pharmacokinetics in mice (plasma and brain levels, LC-MS). The format is in vivo. The following applies: mouse. On the procedure:
To prepare for in vivo studies, we investigated the pharmacokinetic properties of compound 6. […] For comparison, we determined the plasma and brain loxapine levels. […] Collectively, the pharmacological and pharmacokinetic profiles of compound 6 make it an excellent molecule for in vivo pharmacodynamic studies.
Pharmacokinetic experiments were performed by Bienta (Enamine Biology Services, Kiev, Ukraine). Study design, animal selection, handling, and treatment were performed in accordance with the Enamine PK study protocols and the Institutional Animal Care and Use Guidelines. Male C57BL/6J mice (11–16 weeks old) were used in this study. The animals were fasted for 4 h before dosing. […] Each timepoint treatment group included three animals, and a control group was employed, including one animal.
Before collecting blood and brain tissue, the mice were anesthetized with 2,2,2‐tribromoethanol (150 mg kg^−1 i.p.). In studies with i.p. compound administration, the chest was opened, an incision was made in the right atrium, whole blood was collected into tubes containing K2EDTA, and the animals were perfused with saline (10 mL) prior to the excision of the brain tissue (left lobe). In studies with p.o. or i.v. delivery of compounds, blood was collected from the orbital sinus in microtainers containing K3EDTA, the animals were sacrificed by cervical dislocation, and the brain tissue (left lobe) was excised. After collection, the blood samples were centrifuged for 10 min at 3000 rpm, and the brain samples were weighed. All samples were immediately processed, flash‐frozen, and stored at −70 °C until subsequent analysis.
The compound levels in the plasma and brain samples were determined using liquid chromatography–tandem mass spectrometry (LC‐MS/MS) by a staff member from Bienta. Pharmacokinetic data analysis was performed using non‐compartmental, bolus injection, or extravascular input analysis models with WinNonlin 5.2 (PharSight). Data below the lower limit of quantitation were presented as missing data to improve the validity of the half‐life calculations. For each treatment condition, the final concentration values obtained at each time point were analyzed for outliers using Grubbs' test, with the level of significance set at p < 0.05. The sum of the AUC0‐inf (area under the concentration‐time curve from zero to time infinity) was used to estimate the ratiobrain/plasma (concentration ratio of the compound in the brain and plasma).

Where [2] appears, read: male, C57BL/6J, ip, I.P. 10 mg/kg, brain.
Where [3] appears, read: male, C57BL/6J, ip, I.P. 10 mg/kg, plasma.
The mark [4] stands for this setting: male, C57BL/6J, iv, I.V. 1 mg/kg, brain.
Setting [5] is: male, C57BL/6J, iv, I.V. 1 mg/kg, plasma.
[6] abbreviates: male, C57BL/6J, po, P.O. 10 mg/kg, brain.
Where [7] appears, read: male, C57BL/6J, po, P.O. 10 mg/kg, plasma.
Setting [8] is: male, C57BL/6J, ip, I.P. 2.5 mg/kg, brain.
The mark [9] stands for this setting: male, C57BL/6J, ip, I.P. 2.5 mg/kg, plasma.

By AUC(0-inf) is commonly meant the area under the concentration-time curve extrapolated to infinity. Read a high AUC(0-inf) as more exposure. One may read the Cmax as the highest concentration seen after dosing. One may read the Tmax as the time from dosing to the highest level. Regarding `O=C(O)COCCN1CCN(C2=Nc3ccccc3Oc3ccc(Cl)cc32)CC1` [Compound 6], the “increase in Tm” value at purified human Slack worked out at 9.3 °C. Further, at purified human Slack, the “melting temperature Tm of Slack” value stood at 39.3 ± 0.9 °C. Also, the AUC(0-inf) was 6780 ng·h/mL in data set [1] (setting [2]); 5600 ng·h/mL in data set [1] (setting [3]); 520 ng·h/mL in data set [1] (setting [4]); 473 ng·h/mL in data set [1] (setting [5]); 3750 ng·h/mL in data set [1] (setting [6]); 4070 ng·h/mL in data set [1] (setting [7]). Moreover, the Cmax in data set [1] (setting [2]) turned out to be 5490 ng/mL; in data set [1] (setting [3]), 6280 ng/mL; in data set [1] (setting [4]), 493 ng/mL; in data set [1] (setting [5]) it was 562 ng/mL; in data set [1] (setting [6]), 2460 ng/mL; in data set [1] (setting [7]), 3140 ng/mL. Also, the Tmax in data set [1] (setting [2]), in data set [1] (setting [3]), in data set [1] (setting [4]), in data set [1] (setting [6]) and in data set [1] (setting [7]) was 15 min in each case. Also, the half-life is 39.7 min in data set [1] (male, C57BL/6J, ip, I.P. 10 mg/kg, brain, read-out: t1/2); 35 min in data set [1] (male, C57BL/6J, ip, I.P. 10 mg/kg, plasma, read-out: t1/2); 62.1 min in data set [1] (male, C57BL/6J, iv, I.V. 1 mg/kg, brain, read-out: t1/2); 52.5 min in data set [1] (male, C57BL/6J, iv, I.V. 1 mg/kg, plasma, read-out: t1/2); approximately 35 min in data set [1] (male, C57BL/6J, plasma and brain, ip, 10 mg kg−1 i.p., first-order kinetics, read-out: half-life in the plasma and brain); 71.9 min in data set [1] (male, C57BL/6J, po, P.O. 10 mg/kg, brain, read-out: t1/2). Also, the half-life in data set [1] (male, C57BL/6J, po, P.O. 10 mg/kg, plasma, read-out: t1/2) worked out at 67.4 min. Further, the “blood–brain barrier crossing” value in data set [1] (10 mg kg−1 i.p.) is given as “readily crossed the blood–brain barrier”.

As for `CN1CCN(C2=Nc3ccccc3Oc3ccc(Cl)cc32)CC1` [Loxapine, reference compound], on purified human Slack, the “increase in Tm” value came to 7.8 °C and the “melting temperature Tm of Slack” value stood at 37.8 ± 1.3 °C. Also, in data set [1] (male, C57BL/6J, brain and plasma, ip, 2.5 mg kg−1 i.p., from AUC0-inf, read-out: ratio brain/plasma), the Kp amounted to 5.12. In data set [1] (setting [8]), the AUC(0-inf) was 913 ng·h/mL, the Cmax came to 493 ng/mL and the Tmax is 15 min. Moreover, the half-life in data set [1] (male, C57BL/6J, ip, I.P. 2.5 mg/kg, brain, read-out: t1/2) was found to be 82.2 min. Further, in data set [1] (setting [9]), the AUC(0-inf) is 178 ng·h/mL, the Cmax worked out at 143 ng/mL and the Tmax is 15 min. Further, the half-life in data set [1] (male, C57BL/6J, ip, I.P. 2.5 mg/kg, plasma, read-out: t1/2) was determined as 61.9 min.
